Laboratory results from PMC3475717, “A Spiroligomer α-Helix Mimic That Binds HDM2, Penetrates Human Cells and Stabilizes HDM2 in Cell Culture” (PLoS ONE, 2012).
pKd: −log10 of the molar value. “And” between values parts separate entries of the source, which are not always exact repeats. Identical values can stand only once.

Columns and labels:
[1] = target: T1, HDMX (Homo sapiens, UniProt O15151); assay: binding experiments with HDMX
T1 sequence (O15151 1-490): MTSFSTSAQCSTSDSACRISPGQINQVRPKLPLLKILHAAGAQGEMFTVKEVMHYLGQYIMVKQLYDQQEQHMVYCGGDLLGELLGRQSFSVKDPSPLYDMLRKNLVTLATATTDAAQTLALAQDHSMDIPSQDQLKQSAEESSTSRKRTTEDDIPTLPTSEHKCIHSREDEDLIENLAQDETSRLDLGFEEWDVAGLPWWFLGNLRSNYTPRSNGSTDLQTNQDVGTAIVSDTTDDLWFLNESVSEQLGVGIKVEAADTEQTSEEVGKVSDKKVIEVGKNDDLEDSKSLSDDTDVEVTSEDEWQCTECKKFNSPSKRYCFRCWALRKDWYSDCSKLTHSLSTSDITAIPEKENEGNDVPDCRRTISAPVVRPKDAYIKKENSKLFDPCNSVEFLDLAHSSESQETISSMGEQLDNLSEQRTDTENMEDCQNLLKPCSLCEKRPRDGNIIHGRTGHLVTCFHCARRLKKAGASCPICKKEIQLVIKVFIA

[2] = target: T2, HDM2_25–117 (Homo sapiens, UniProt Q00987); assay: direct binding fluorescence polarization assay; conditions: for fluorescence polarization: oligomer 10 nM, three independent replicates
T2 construct: unnamed fusion partner ('fusion protein'); made in house; host or cells: E. coli BL21
Protocol: To measure the binding affinity of the functionalized spiroligomers to HDM2 we utilized a direct binding fluorescence polarization assay. The binding of the fluorescein labeled spiroligomers was measured at 10 nM spiroligomer in the presence of varying concentrations of HDM2_25–117 [31]. […] The initial screen of spiroligomers including 3–7 was carried out on the spiroligomer backbone containing all (S) stereochemistry to identify appropriate functional groups to mimic the side chains of Phe19, Trp23 and Leu26 of the p53 helix.
HDM2 Protein Expression. A fusion protein consisting of residues 1-140 (the plasmid was a generous gift from the lab of Neil Zondlo, University of Delaware) was prepared by over-expression.4 Plasmids were used to transform chemically competent E-coli BL21 Cells (Novagen), and a single colony was used to inoculate 2×4 mL LB media culture tubes containing 0.1 mg/mL ampicillin, at 37 °C overnight. These overnight cultures were used to inoculate a 1 L culture of TB media containing 0.1 mg/ml ampicillin. The culture was incubated at 37 °C with shaking at 250 rpm until the optical density at 600 nm reached to 0.9 absorbance units. Protein overexpression was then induced by the addition of 20% isopropyl β-D-thiogalactoside (IPTG) to 0.4 mM final concentration. The culture was then grown for additional 5 hours at 30 °C. Then cells were harvested at 4 °C by centrifugation at 4500 rpm for 20 min.
The cell pellet was resuspended in chilled 1x Binding Buffer (0.5 M NaCl, 20 mMTris-Hcl, 5 mM imidazole, pH 7.9), frozen and stored at -80 °C until protein purification.
Protein Purification. The frozen cell pellet was thawed at 4 °C and lysed by sonication for 2 minutes with 10 sec on and 20 sec off. Cell debris was pelleted by centrifugation for 30 min at 15000 g, 4 °C and the supernatant was filtered through a 0.2 μm syringe filter. A column was prepared using 2 mL Novagen His-Bind suspended resin and resin was washed with 3 volumes DI water. The flow rate maintained was not more than 0.5 ml/min throughout the purification.
The resin was charged with 5 vol 1x Charge Buffer (50 mM NiSO4) and then equilibrated with 3 vol 1x Binding Buffer (5 mM imidazole). After loading the column with prepared extract, the resin was washed with 10 vol 1x Binding Buffer and then with 6 vol 1x Wash Buffer (10 mM imidazole). Protein was then eluted with 6 vol 1x Elution Buffer (1 M imidazole). The eluate was captured in fractions of 0.5 ml. Fractions were assayed with Coomasie blue and desired fractions were combined and dialyzed using spectra/por 6 Dialysis Membranes of 10,000 MWCO (Spectrum Laboratories) in PBS (pH 7.4, 5 mM EDTA and 0.5 mM DTT) for overnight.
The resulting protein was characterized by SDS-PAGE (4-20% gradient gel) for purity analysis and concentrations were measured by UV analysis.
Fresh protein was used immediately for protein binding experiments. […]
Direct Binding Fluorescence Polarization Experiments. Fluorescence polarization experiments were undertaken to assess the ability of spiroligomers to bind HDM2, a protein with hydrophobic cleft that binds the p53 N-terminal helical domain. Fluoresceinated oligomers (conc. of 10 nM) were incubated for 30 minutes at room temperature with sequential dilutions of […]

T2 sequence (Q00987 25-117): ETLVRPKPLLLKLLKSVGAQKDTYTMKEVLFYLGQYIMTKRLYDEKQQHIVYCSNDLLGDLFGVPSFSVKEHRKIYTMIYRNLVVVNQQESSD

CC(C)CN1C(=O)[C@@H]2C[C@@]3(CN2C(=O)[C@@]12C[C@H]1C(=O)N(Cc4ccc(Cl)c(Cl)c4)[C@]4(C[C@@H]5C(=O)N[C@@H](CCc6ccccc6)C(=O)N5C4)C(=O)N1C2)NC(=O)[C@@H](CCCCNC(=S)Nc1ccc2c(c1)C(=O)OC21c2ccc(O)cc2Oc2cc(O)ccc21)NC3=O [Compound 1]
selectivity HDM2 versus HDMX ([1]; Kd HDM2 0.4 µM versus Kd HDMX 19 µM): selective for HDM2
pKd ([1]; data not shown): 4.72
increase in affinity for HDM2 ([2]; 1 versus 9, differing only in the stereocenter of the lysine residue): ~17 fold
fluorescence polarization ([2]; [hDM2] 0.08106232 nM): 68. 58 millipolarization and 68. 27 millipolarization and 70. 47 millipolarization
fluorescence polarization ([2]; [hDM2] 0.1621246 nM): 65. 92 millipolarization and 65. 99 millipolarization and 65. 14 millipolarization
fluorescence polarization ([2]; [hDM2] 0.3242493 nM): 75. 62 millipolarization and 76. 93 millipolarization and 62. 45 millipolarization
fluorescence polarization ([2]; [hDM2] 0.6484985 nM): 76. 88 millipolarization and 65. 12 millipolarization and 66. 54 millipolarization
fluorescence polarization ([2]; [hDM2] 1.296997 nM): 74. 46 millipolarization and 61. 79 millipolarization and 70. 28 millipolarization
fluorescence polarization ([2]; [hDM2] 2.593994 nM): 69. 71 millipolarization and 64. 6 millipolarization and 67. 34 millipolarization
fluorescence polarization ([2]; [hDM2] 5.187988 nM): 68. 52 millipolarization and 66. 82 millipolarization and 65. 52 millipolarization
fluorescence polarization ([2]; [hDM2] 10.37598 nM): 78. 3 millipolarization and 73. 95 millipolarization and 76. 62 millipolarization
fluorescence polarization ([2]; [hDM2] 20.75195 nM): 75. 45 millipolarization and 72. 99 millipolarization and 76. 91 millipolarization
fluorescence polarization ([2]; [hDM2] 41.50391 nM): 82. 2 millipolarization and 90. 13 millipolarization and 83. 56 millipolarization
fluorescence polarization ([2]; [hDM2] 83.00781 nM): 90. 07 millipolarization and 92. 68 millipolarization and 90. 31 millipolarization
fluorescence polarization ([2]; [hDM2] 166.0156 nM): 123. 93 millipolarization and 122. 78 millipolarization and 128. 68 millipolarization
fluorescence polarization ([2]; [hDM2] 332.0313 nM): 176. 96 millipolarization and 168. 11 millipolarization and 165. 21 millipolarization
fluorescence polarization ([2]; [hDM2] 664.0625 nM): 219. 16 millipolarization and 207. 64 millipolarization and 219. 81 millipolarization
fluorescence polarization ([2]; [hDM2] 1328.125 nM): 249. 64 millipolarization and 254. 41 millipolarization and 260. 31 millipolarization
fluorescence polarization ([2]; [hDM2] 2656.25 nM): 276. 63 millipolarization and 280. 28 millipolarization and 279. 87 millipolarization
fluorescence polarization ([2]; [hDM2] 5312.5 nM): 283. 09 millipolarization and 283. 22 millipolarization and 294. 56 millipolarization
fluorescence polarization ([2]; [hDM2] 10625 nM): 279. 23 millipolarization and 291. 88 millipolarization and 291. 17 millipolarization
fluorescence polarization ([2]; [hDM2] 21250 nM): 289. 83 millipolarization and 291. 58 millipolarization and 284. 9 millipolarization
fluorescence polarization ([2]; [hDM2] 42500 nM): 280. 74 millipolarization and 287. 71 millipolarization and 288. 59 millipolarization
difference in binding to HDM2 ([2]; epimers 12 and 1): four-fold
pKd ([2]; fluorescein labeled ligand at 10 nM, varying HDM2, read-out: Kd (HDM2)): 6.40
